The inhibition is the relative decrease from the control value, in per cent. Low readings indicate a weak effect, high ones a strong effect.

The experiment concerns the target T1, HMG-CoA reductase (Homo sapiens, UniProt P04035).
T1 construct: purchased Sigma-Aldrich CS1090
T1 sequence (P04035 426-888 limits assumed): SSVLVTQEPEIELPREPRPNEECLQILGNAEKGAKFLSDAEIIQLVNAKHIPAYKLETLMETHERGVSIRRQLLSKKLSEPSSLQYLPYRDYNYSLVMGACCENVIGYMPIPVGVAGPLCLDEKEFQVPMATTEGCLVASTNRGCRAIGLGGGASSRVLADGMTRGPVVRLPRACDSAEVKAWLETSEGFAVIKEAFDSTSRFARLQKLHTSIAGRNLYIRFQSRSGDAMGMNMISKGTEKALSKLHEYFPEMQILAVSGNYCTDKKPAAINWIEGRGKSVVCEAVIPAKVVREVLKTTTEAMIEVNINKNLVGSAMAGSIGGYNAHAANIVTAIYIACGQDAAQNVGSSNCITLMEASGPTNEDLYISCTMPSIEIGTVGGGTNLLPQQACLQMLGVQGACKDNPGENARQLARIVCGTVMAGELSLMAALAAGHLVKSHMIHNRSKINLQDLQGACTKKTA
As to the kind of experiment: HMG-CoA reductase inhibition test (HMG-CoA Reductase Assay Kit, decrease in absorbance at 340 nm). As to conditions: positive control. The class given is biochemical.

Structures are written as SMILES.

Method: The purpose of the test is to evaluate the hypocholesterolemic activity of the test samples by determining the inhibition of the enzyme 3-hydroxy-3-methylglutaryl-CoA reductase (HMG-CoA reductase).
The test for the HMG-CoA reductase enzyme inhibitory capacity was performed using the special kit (HMG-CoA Reductase Assay Kit, Catalogue Number CS1090, Sigma-Aldrich) and related experimental protocol.
The experiments were carried out in triplicate.
5 mL of buffer were added to 50 mg of the test sample and the solution obtained was then suitably filtered and used for the test.
A 100 µM Pravastatin solution (0.042 mg/mL, Sigma Aldrich) was used as a positive control.
The samples thus prepared were stirred for 10 seconds. Absorbance was then measured at 340 nm for 10 minutes while maintaining the samples at 37°C.
The ability to inhibit enzyme activity was then expressed as percent inhibition and calculated according to the following Equation (1): %Hinibition = ((ΔAControl −ΔAsample)/(ΔAControl)) × 100% [formula] where the value of ΔA is given by the difference between the absorbance recorded at the start time and that recorded after 10 minutes for the control and for the sample respectively. […]

`CC[C@H](C)C(=O)O[C@H]1C[C@H](O)C=C2C=C[C@H](C)[C@H](CC[C@@H](O)C[C@@H](O)CC(=O)O)[C@H]21` [Pravastatin] had an inhibition at 10 µg/mL (Pravastatin 0.01 mg/mL (10 µg/mL)) of 99.8%. Besides, at 100 µM the inhibition (Pravastatin 0.042 mg/ml (100 µM)) was 99.6 ± 1.1%.

These data come from patent publication EP4247399B1, “COMPOSITION COMPRISING NATURAL EXTRACTS AND USES THEREOF” (Esserre Pharma Srl, priority 2020, dated 2022).
